According to US20180282323A1, “Mesoionic imidazole derivatives as insecticides” (BAYER CROPSCIENCE AKTIENGESELLSCHAFT, priority 2015, published 2018):
Like-named read-outs stand apart in the source and are kept apart here. One block for each molecule: values may come before it.

What was measured:
[1] = test system: Diabrotica balteata; assay: Diabrotica balteata spray test; type: in vivo; settings: application rate 160 μg/well, wheat grains with beetle larvae, after 7 days
Experimental: Diabrotica balteata—Spray Test Solvent: 78 parts by weight of acetone • • 1.5 parts by weight of dimethylformamide Emulsifier: alkylaryl polyglycol ether
(§1) To produce a suitable active ingredient formulation, 1 part by weight of active ingredient is dissolved with the stated parts by weight of solvent and made up with water containing an emulsifier concentration of 1000 ppm until the desired concentration is attained. To produce further test concentrations, the formulation is diluted with emulsifier-containing water.
Pre-swollen wheat grains (Triticum aestivum) are incubated in a multiwell plate filled with agar and a little water for one day (5 seed grains per cavity). The germinated wheat grains are sprayed with an active ingredient formulation of the desired concentration. Subsequently, each cavity is infected with 10-20 beetle larvae of Diabrotica balteata.
After 7 days, the efficacy in % is determined. 100% means that all wheat plants have grown as in the untreated, uninfected control; 0% means that no wheat plant has grown.

[2] = test system: Myzus persicae; assay: Myzus persicae oral test; type: in vivo; settings: application rate 20 ppm, oral uptake through parafilm, after 5 days
Procedure, shortened: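 Compound dissolved in acetone, diluted with water, then mixed into IPL41 insect medium with sugar in microtitre plates under parafilm. Mixed-population green peach aphids fed through the membrane; % mortality scored after 5 days (100% = all killed).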

[3] = test system: Myzus persicae; assay: Myzus persicae spray test (Chinese cabbage leaf discs); type: in vivo; settings: application rate 500 g/ha, after 6 days
Experimental: Myzus persicae—Spray Test Solvent: 78 parts by weight of acetone • • 1.5 parts by weight of dimethylformamide Emulsifier: alkylaryl polyglycol ether
as §1
Discs of Chinese cabbage leaves (Brassica pekinensis) infested by all stages of the green peach aphid (Myzus persicae) are sprayed with an active ingredient formulation of the desired concentration.
After 6 days, the efficacy in % is determined. 100% means that all the aphids have been killed; 0% means that no aphids have been killed.

[4] = log P by HPLC on reversed-phase column (EEC directive 79/831 Annex V.A8); type: physicochemical; settings: for log p: HPLC on reversed-phase column (footnote a); for log p a): HPLC on reversed-phase column
Procedure, shortened: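 Determined per EEC directive 79/831 Annex V.A8 by HPLC on a reversed-phase C18 column at 43° C.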

[5] = test system: Boophilus microplus; assay: Boophilus microplus injection test; type: in vivo; settings: application rate 20 μg/animal, assessed after 7 days by laying of fertile eggs
Experimental: Boophilus microplus—Injection Test Solvent: dimethyl sulphoxide
To produce a suitable active ingredient formulation, 10 mg of active ingredient are mixed with 0.5 ml of solvent and the concentrate is diluted with solvent to the desired concentration.
1 μl of the active ingredient solution is injected into the abdomen of 5 engorged adult female cattle ticks (Boophilus microplus). The animals are transferred into dishes and kept in a climate-controlled room.
Efficacy is assessed after 7 days by laying of fertile eggs. Eggs which are not visibly fertile are stored in a climate-controlled cabinet until the larvae hatch after about 42 days. An efficacy of 100% means that none of the ticks has laid any fertile eggs; 0% means that all the eggs are fertile.

[6] = test system: Myzus persicae; assay: Myzus persicae spray test (bell pepper plants); type: in vivo; settings: application rate 100 ppm, after 6 days
Experimental: Myzus persicae—Spray Test Solvent: 14 parts by weight of dimethylformamide Emulsifier: alkylaryl polyglycol ether
as §1, with “water. If the addition of ammonium salts or/and penetrants is required, these are each added in a concentration of 1000 ppm to the formulation solution.” for “water.”
Bell pepper plants (Capsicum annuum) severely infested with the green peach aphid (Myzus persicae) are treated by spraying with the active ingredient formulation in the desired concentration.
After 6 days, the kill in % is determined. 100% means that all of the aphids have been killed; 0% means that none of the aphids have been killed.

[7] = test system: Lucilia cuprina; assay: Lucilia cuprina test; type: in vivo; settings: application rate 100 ppm, L1 larvae, after 2 days
Experimental: Lucilia cuprina Test Solvent: dimethyl sulphoxide
To produce a suitable active ingredient formulation, 10 mg of active ingredient are mixed with 0.5 ml of dimethyl sulphoxide, and the concentrate is diluted with water to the desired concentration.
About 20 L1 larvae of the Australian sheep blowfly (Lucilia cuprina) are transferred into a test vessel containing minced horsemeat and the active ingredient formulation of the desired concentration.
After 2 days, the kill in % is determined. 100% means that all the larvae have been killed; 0% means that no larvae have been killed.

Compound: O=C(Cn1cc(Cl)cn1)c1c([O-])n(Cc2ccc(Cl)nc2)c2cccc[n+]12 [Example I-1-004]
efficacy [1]: 100%
efficacy [2]: 100%
efficacy [3]: 90%
log p [4]: 1.96

Compound: Cc1ccn(CC(=O)c2c([O-])n(Cc3cnc(Cl)s3)c3cccc[n+]23)n1 [Example I-1-012]
efficacy [5]: 100%
efficacy [2]: 100%
efficacy [3]: 90%
log p [4]: 1.63

Compound: COc1cnn(CC(=O)c2c([O-])n(Cc3cnc(Cl)s3)c3cccc[n+]23)c1 [Example I-1-013]
efficacy (kill in %) [6]: 85%
efficacy [2]: 100%
log p [4]: 1.58

Compound: CC(C)OCC(=O)c1c([O-])n(Cc2ccc(Cl)nc2)c2cccc[n+]12 [Example I-1-016]
efficacy [5]: 100%
efficacy [2]: 100%
efficacy [3]: 100%
log p [4]: 1.67

Compound: CCOCC(=O)c1c([O-])n(Cc2ccc(Cl)nc2)c2cccc[n+]12 [Example I-1-020]
efficacy [5]: 80%
efficacy [1]: 100%
efficacy [2]: 100%
efficacy [3]: 90%
log p [4]: 1.39

Compound: CC(C)SCC(=O)c1c([O-])n(Cc2cnc(Cl)s2)c2cccc[n+]12 [Example I-1-027]
efficacy (kill in %) [7]: 90%
efficacy [1]: 100%
efficacy [2]: 100%
efficacy [3]: 100%
log p [4]: 2.27

Compound: CCSCC(=O)c1c([O-])n(Cc2cnc(Cl)s2)c2cccc[n+]12 [Example I-1-028, 1-[(2-Chloro-1,3-thiazol-5-yl)methyl]-3-[(ethylsulphanyl)acetyl]-1H-imidazo[1,2-a]pyridin-4-ium-2-olate]
efficacy [1]: 100%
pest or weed control at 20 ppm ([2]; Myzus persicae, 120 h, read-out: efficacy): 100%
efficacy [3]: 90%
chromatographic logP [4]: 1.99
chromatographic logP ([4]; pH 2.7): 1.99

Compound: CC(=O)c1c([O-])n(Cc2ccc(Cl)nc2)c2cccc[n+]12 [Example I-1-036]
efficacy [1]: 100%
efficacy [2]: 100%
efficacy [3]: 90%
log p [4]: 1.2

Compound: CSc1cnn(CC(=O)c2c([O-])n(Cc3cnc(Cl)s3)c3cccc[n+]23)c1 [Example I-1-044]
efficacy (kill in %) [6]: 80%
efficacy [2]: 100%
log p [4]: 1.97

Compound: O=C(Cn1cc(C(F)(F)F)cn1)c1c([O-])n(Cc2cnc(Cl)s2)c2cccc[n+]12 [Example I-1-045]
efficacy (kill in %) [6]: 95%
efficacy [1]: 80%
efficacy [2]: 100%
log p [4]: 2.37

Compound: O=C(Cn1ccnc1Cl)c1c([O-])n(Cc2cnc(Cl)s2)c2cccc[n+]12 [Example I-1-046]
efficacy (kill in %) [6]: 95%
efficacy [2]: 100%
log p [4]: 1.44

Compound: CSc1ccn(CC(=O)c2c([O-])n(Cc3ccc(Cl)nc3)c3cccc[n+]23)n1 [Example I-1-054]
efficacy [5]: 100%
efficacy [2]: 100%
efficacy [3]: 100%
log p [4]: 1.35

Compound: O=C(CO)c1c([O-])n(Cc2cnc(Cl)s2)c2cccc[n+]12 [Example I-1-089]
efficacy (kill in %) [7]: 90%
efficacy [2]: 100%
log p [4]: 1.14

Compound: CCOCC(=O)c1c([O-])n(Cc2ccc(Cl)nc2)c2ccc(C)c[n+]12 [Example I-1-113]
efficacy (kill in %) [6]: 95%
efficacy [2]: 100%
log p [4]: 1.66

Compound: CCOCC(=O)c1c([O-])n(Cc2ccc(Cl)nc2)c2cccc(C)[n+]12 [Example I-1-114]
efficacy (kill in %) [6]: 85%
efficacy [2]: 100%
log p [4]: 1.47

Compound: COCC(=O)c1c([O-])n(Cc2ccc(Cl)nc2)c2ccc(F)c[n+]12 [Example I-1-165]
efficacy [5]: 100%
efficacy [2]: 100%
efficacy [3]: 90%
log p [4]: 1.39

Compound: COCC(=O)c1c([O-])n(Cc2cnc(Cl)c(Cl)c2)c2cccc[n+]12 [Example I-1-179]
efficacy (kill in %) [6]: 95%
efficacy [2]: 100%
log p [4]: 1.66

Compound: COCC(=O)c1c([O-])n(Cc2ccc(Cl)nc2)c2c(C)ccc[n+]12 [Example I-1-193]
efficacy (kill in %) [6]: 100%
efficacy [2]: 100%
log p [4]: 1.38

Compound: CNC(=O)c1c([O-])n(C(C)c2ccc(Cl)nc2)c2cccc[n+]12 (centres unmarked) [Example I-1-246]
efficacy [1]: 100%
efficacy [2]: 90%
efficacy [3]: 90%
log p a) [4]: 1.41

Compound: Cc1ccc[n+]2c(C(=O)NC3(C#N)CC3)c([O-])n(Cc3ccc(Cl)nc3)c12 [Example I-1-252]
efficacy (kill in %) [6]: 95%
efficacy [2]: 90%
log p a) [4]: 1.78

Compound: CCCNC(=O)c1c([O-])n(Cc2cnc(Cl)s2)c2c(C)ccc[n+]12 [Example I-1-267]
efficacy [1]: 100%
efficacy [3]: 90%
log p a) [4]: 2.26

Continued, in another order:

log p [4]: 1.58
Compound: CC(=O)N(CC(=O)c1c([O-])n(Cc2cnc(Cl)s2)c2cccc[n+]12)C1CC1 [Example I-1-062]
efficacy (kill in %) [6]: 95%
efficacy [2]: 100%

log p [4]: 1.38
Compound: COCCOCC(=O)c1c([O-])n(Cc2cnc(Cl)s2)c2cccc[n+]12 [Example I-1-087]
efficacy (kill in %) [7]: 100%
efficacy [1]: 100%
efficacy [2]: 100%
efficacy [3]: 100%

log p [4]: 2.73
Compound: O=C(Nc1ccccc1)c1c([O-])n(Cc2cnc(Cl)s2)c2cccc[n+]12 [Example I-1-145]
efficacy (kill in %) [7]: 100%
efficacy (kill in %) [6]: 100%
efficacy [1]: 100%
efficacy [2]: 100%

log p [4]: 0.84
Compound: O=C(NC1CC1)c1c([O-])n(Cc2cncnc2)c2cccc[n+]12 [Example I-1-152]
efficacy [5]: 80%
efficacy [2]: 100%
efficacy [3]: 90%

log p a) [4]: 1.13
Compound: Cc1cnc(Cn2c([O-])c(C(=O)NC3CC3)[n+]3ccccc23)cn1 [Example I-1-217]
efficacy [5]: 80%
efficacy [2]: 100%
efficacy [3]: 100%

log p a) [4]: 2.82
Compound: O=C(Nc1ccc(F)cc1)c1c([O-])n(Cc2cnc(Cl)s2)c2cccc[n+]12 [Example I-1-227]
efficacy (kill in %) [6]: 99%
efficacy [1]: 100%
efficacy [2]: 100%

log p a) [4]: 2.43
Compound: O=C(Nc1c(F)cccc1F)c1c([O-])n(Cc2cnc(Cl)s2)c2cccc[n+]12 [Example I-1-231]
efficacy (kill in %) [6]: 99%
efficacy [1]: 100%
efficacy [2]: 100%

log p a) [4]: 2.8
Compound: O=C(Nc1c(Cl)cccc1Cl)c1c([O-])n(Cc2cnc(Cl)s2)c2cccc[n+]12 [Example I-1-282]
efficacy [1]: 100%
efficacy [2]: 100%
efficacy [3]: 90%

log p a) [4]: 2.57
Compound: O=C(Nc1c(F)cccc1Cl)c1c([O-])n(Cc2cnc(Cl)s2)c2cccc[n+]12 [Example I-1-283]
efficacy [1]: 100%
efficacy [2]: 100%
efficacy [3]: 100%

log p a) [4]: 1.68
Compound: O=C(Nc1ncccc1F)c1c([O-])n(Cc2cnc(Cl)s2)c2cccc[n+]12 [Example I-1-284]
efficacy [1]: 80%
efficacy [2]: 100%
efficacy [3]: 90%

log p a) [4]: 2.76
Compound: Cc1ccc[n+]2c(C(=O)Nc3c(F)cccc3F)c([O-])n(C(C)c3cnc(Cl)s3)c12 (centres unmarked) [Example I-1-288]
efficacy [1]: 100%
efficacy [2]: 100%

log p a) [4]: 1.97
Compound: Cc1ccc[n+]2c(C(=O)COC(C)C)c([O-])n(Cc3cnc(Cl)s3)c12 [Example I-1-292]
efficacy [1]: 100%
efficacy [2]: 100%
efficacy [3]: 90%
